The source made the active and inactive calls.
Legend:
Cytochrome P450 2D6 = Cytochrome P450 2D6 (Homo sapiens, UniProt P10635);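 further: CYP2D6 member of a cytochrome P450 panel assay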
H9c2 = assay: cells; format: functional, cell-based; settings: Rattus norvegicus, H9c2, Myocardium;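 further: confirmatory concentration-response retest of ultra-high-throughput screening hits for modulation of myocardial damage; cell death induced by hydrogen peroxide oxidative stress; compound pretreatment for 60 min then peroxide exposure for 2 h; potency is for protecting the cells against peroxide damage rather than for killing them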
Cytochrome P450 3A4 = Cytochrome P450 3A4 (Homo sapiens, UniProt P08684);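 further: CYP3A4 tested as one member of a cytochrome P450 panel screen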
Cytochrome P450 2C19 = Cytochrome P450 2C19 (Homo sapiens, UniProt P33261); assay: Cytochrome panel assay with activity outcomes. Panel member name: p450-cyp2c19 Compounds with AC50 equal or less than 10 uM are considered active; format: functional
[1] = cytotoxicity toward NIH3T3 fibroblasts, dose response, counter-screen, cell-based, ATP luminescence, mouse fibroblasts (AID 2010); format: functional;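 further: cells exposed to compound for about 90 hours before reading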
INS1 = assay: beta cell apoptosis inhibitors, cytokine rescue, dose response, luminescence, retest (AID 449756); format: functional, cell-based; settings: Rattus norvegicus;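 further: cell death triggered by IL-1 beta plus TNF-alpha plus IFN-gamma mixture; protective hits raise ATP signal compared with cytokine alone wells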
Cytochrome P450 1A2 = target: T1, Cytochrome P450 1A2 (Homo sapiens, UniProt P05177);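 further: PubChem cytochrome P450 panel assay, CYP1A2 panel member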
T1 sequence (P05177 whole entry): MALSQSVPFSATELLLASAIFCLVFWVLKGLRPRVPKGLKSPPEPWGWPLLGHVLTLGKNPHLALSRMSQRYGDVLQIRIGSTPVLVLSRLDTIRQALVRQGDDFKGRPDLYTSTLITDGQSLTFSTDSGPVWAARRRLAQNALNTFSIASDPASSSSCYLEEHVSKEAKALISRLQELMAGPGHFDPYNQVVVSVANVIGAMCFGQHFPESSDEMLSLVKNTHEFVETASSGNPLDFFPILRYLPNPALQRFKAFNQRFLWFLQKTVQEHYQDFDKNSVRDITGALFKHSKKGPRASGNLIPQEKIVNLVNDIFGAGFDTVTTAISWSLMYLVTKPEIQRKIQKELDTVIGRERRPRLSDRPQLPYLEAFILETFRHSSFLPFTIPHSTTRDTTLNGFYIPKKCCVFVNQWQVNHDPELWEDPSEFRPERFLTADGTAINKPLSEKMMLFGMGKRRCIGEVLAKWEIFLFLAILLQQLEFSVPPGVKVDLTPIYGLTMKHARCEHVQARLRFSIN

[2] = inhibitors of intracellular T. cruzi replication, confirmation, NIH3T3 host cells, beta-gal luminescence (AID 2044); format: functional, cell-based;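 further: intracellular parasites grown in NIH/3T3 mouse fibroblasts as host cells; luminescent beta-galactosidase reporter signal from transgenic T. cruzi replicating inside host cells; inhibitors lower the luminescence signal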
[3] = system: Streptococcus sp. 'group A'; assay: growth inhibition of control SK(-) GAS strain, dose response, counter-screen for streptokinase expression inhibitor project, luminescence, kanamycin, BacTiterGlo, confirmation (AID 1900); format: functional, organism-based
Streptococcus = assay: Group A Streptococcus viability loss, dose response, counter-screen for streptokinase expression inhibitor project, luminescence, BacTiterGlo (AID 1915); format: functional, organism-based;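 further: potency for reduction of bacterial viability or growth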
Streptokinase A = target: T2, Streptokinase A (Streptococcus pyogenes serotype M1, UniProt P10520); assay: S. pyogenes streptokinase expression inhibitors, potency, dose response, plasminogen activation absorbance, OD405 (AID 1914); format: functional, Streptococcus pyogenes M1 GAS;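 further: secreted streptokinase activity via plasminogen activation per viability signal from cell pellet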
T2 sequence (P10520 whole entry): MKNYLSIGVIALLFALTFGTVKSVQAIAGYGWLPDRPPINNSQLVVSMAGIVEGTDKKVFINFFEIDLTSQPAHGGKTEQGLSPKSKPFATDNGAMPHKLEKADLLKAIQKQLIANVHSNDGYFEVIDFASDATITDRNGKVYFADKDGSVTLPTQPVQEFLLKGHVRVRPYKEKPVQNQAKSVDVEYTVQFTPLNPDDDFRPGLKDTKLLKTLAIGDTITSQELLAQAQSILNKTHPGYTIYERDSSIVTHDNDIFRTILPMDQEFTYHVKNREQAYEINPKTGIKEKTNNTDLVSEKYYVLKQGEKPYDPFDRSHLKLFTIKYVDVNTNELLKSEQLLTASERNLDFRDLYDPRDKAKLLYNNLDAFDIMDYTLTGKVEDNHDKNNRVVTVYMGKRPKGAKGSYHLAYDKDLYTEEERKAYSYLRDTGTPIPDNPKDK

Cytochrome P450 2C9 = Cytochrome P450 2C9 (Homo sapiens, UniProt P11712)
Cytochrome P450 2C9, sequence (P11712 whole entry): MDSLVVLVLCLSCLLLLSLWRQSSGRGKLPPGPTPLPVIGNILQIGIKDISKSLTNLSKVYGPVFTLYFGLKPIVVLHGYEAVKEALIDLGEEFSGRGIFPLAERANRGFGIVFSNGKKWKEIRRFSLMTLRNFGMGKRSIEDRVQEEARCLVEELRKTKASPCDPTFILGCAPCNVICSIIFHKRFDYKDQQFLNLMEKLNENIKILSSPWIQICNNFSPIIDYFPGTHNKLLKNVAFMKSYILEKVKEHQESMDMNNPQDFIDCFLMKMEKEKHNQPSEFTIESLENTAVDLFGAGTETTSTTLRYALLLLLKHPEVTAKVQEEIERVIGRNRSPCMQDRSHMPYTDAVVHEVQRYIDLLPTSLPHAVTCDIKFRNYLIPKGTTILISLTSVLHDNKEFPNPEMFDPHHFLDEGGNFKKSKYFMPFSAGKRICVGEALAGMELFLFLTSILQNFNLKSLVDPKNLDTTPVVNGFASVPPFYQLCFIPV

Cytochrome P450 3A4, sequence (P08684 whole entry): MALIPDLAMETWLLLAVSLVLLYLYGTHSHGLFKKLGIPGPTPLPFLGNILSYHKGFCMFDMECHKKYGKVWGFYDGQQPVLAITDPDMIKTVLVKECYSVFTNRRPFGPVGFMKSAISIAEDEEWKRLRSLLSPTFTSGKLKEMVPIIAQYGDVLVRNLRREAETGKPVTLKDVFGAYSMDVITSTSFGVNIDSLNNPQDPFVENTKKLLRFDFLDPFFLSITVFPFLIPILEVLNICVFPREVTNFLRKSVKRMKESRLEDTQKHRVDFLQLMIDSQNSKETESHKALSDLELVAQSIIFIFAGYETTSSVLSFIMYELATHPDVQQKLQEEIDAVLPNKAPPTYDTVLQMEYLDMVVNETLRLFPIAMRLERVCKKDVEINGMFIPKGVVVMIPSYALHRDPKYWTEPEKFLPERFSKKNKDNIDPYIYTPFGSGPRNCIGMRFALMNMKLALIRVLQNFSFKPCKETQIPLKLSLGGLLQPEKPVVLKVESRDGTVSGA
Cytochrome P450 2D6, sequence (P10635 whole entry): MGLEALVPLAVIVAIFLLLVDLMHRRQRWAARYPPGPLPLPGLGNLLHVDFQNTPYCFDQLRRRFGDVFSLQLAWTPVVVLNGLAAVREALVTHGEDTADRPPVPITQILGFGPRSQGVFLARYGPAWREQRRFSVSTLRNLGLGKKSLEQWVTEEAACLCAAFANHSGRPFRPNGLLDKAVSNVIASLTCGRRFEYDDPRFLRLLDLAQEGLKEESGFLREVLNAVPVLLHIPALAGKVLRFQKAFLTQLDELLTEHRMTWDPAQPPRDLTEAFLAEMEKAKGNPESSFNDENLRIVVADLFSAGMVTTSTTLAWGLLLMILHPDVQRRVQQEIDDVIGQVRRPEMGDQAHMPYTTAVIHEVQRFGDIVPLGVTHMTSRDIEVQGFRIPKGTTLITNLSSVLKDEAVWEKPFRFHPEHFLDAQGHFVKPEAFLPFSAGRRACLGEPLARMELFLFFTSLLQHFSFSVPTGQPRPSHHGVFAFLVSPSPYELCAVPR
Cytochrome P450 2C19, sequence (P33261 whole entry): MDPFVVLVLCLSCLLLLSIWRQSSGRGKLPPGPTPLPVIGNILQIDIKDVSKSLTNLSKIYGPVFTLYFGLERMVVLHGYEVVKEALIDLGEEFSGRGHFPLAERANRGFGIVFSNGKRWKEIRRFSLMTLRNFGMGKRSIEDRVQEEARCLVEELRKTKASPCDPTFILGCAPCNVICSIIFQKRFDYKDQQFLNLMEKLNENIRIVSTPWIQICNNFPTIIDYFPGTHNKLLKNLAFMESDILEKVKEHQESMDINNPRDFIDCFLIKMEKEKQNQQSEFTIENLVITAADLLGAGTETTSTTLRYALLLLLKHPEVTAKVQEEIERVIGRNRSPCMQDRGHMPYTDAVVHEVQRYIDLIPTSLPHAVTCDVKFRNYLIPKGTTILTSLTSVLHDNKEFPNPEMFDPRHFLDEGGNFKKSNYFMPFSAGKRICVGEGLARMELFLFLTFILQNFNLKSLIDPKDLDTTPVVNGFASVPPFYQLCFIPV

COC(=O)[C@@]1(Cc2ccccc2)[C@H]2c3cc(C(=O)N4CCCC4)n(Cc4ccc(OC)c(OC)c4)c3C[C@H]2CN1C(=O)c1ccccc1
AC50 (Cytochrome P450 2D6): 31.6 µM (inconclusive)

Cc1sc2nc(SCC(=O)N(C)C)nc(O)c2c1C
IC50 (H9c2): 22.3 µM (active)

CCC(C)N1C(=O)S/C(=C/c2ccc3c(c2)n(C)c(=O)n3C)C1=O (centres undefined)
IC50 (H9c2): > 79 µM (inactive)

CN(C)c1ccc(-c2nc(NCCN3CCOCC3)c3ccccc3n2)cc1
AC50 (Cytochrome P450 2D6): 25.1 µM (inconclusive)
AC50 (Cytochrome P450 3A4): 12.6 µM (inconclusive)
AC50 (Cytochrome P450 2C19; read-out: AC50): 39.8 µM (inconclusive)

FC(F)Sc1ccc(NC2=NN=C(c3ccc4c(c3)OCCO4)CS2)cc1
EC50 [1]: 6.72 µM (active)
AC50 (Cytochrome P450 2D6): 14.1 µM (inconclusive)
AC50 (INS1): 4.4 µM (active)
AC50 (Cytochrome P450 1A2): 35.5 µM (inconclusive)
EC50 [2]: 1.99 µM (active)

CC(C)CCN(C(=O)CNC(=O)c1ccco1)C(C(=O)NC1CCCCC1)c1ccco1 (centres undefined)
IC50 (H9c2): 17.4 µM (active)

CCOc1ccc(C(=O)NC(=S)N(Cc2ccccc2)Cc2ccccc2)cc1
EC50 [3]: 2.46 µM (active)
EC50 (Streptococcus): 7.11 µM (active)
AC50 (Cytochrome P450 2D6): 6.31 µM (inconclusive)
EC50 (Streptokinase A): > 150 µM (not active)

COCCOC(=O)N/C=C\c1nc(O)c2ccccc2n1
IC50 (H9c2): > 79 µM (inactive)

CN(Cc1ccco1)c1ncnc2ccc(-c3cccc(C#N)c3)cc12
AC50 (Cytochrome P450 2D6): 25.1 µM (inconclusive)
AC50 (Cytochrome P450 3A4): 31.6 µM (inconclusive)
AC50 (Cytochrome P450 2C9): 1.58 µM (inconclusive)

COc1cccc(C(=O)N(Cc2ccccc2)Cc2cc3cc4c(cc3nc2O)OCCO4)c1
AC50 (Cytochrome P450 2D6): 0.224 µM (inconclusive)

COc1cc(C(=O)Nc2ccc(NC(=O)c3cccc(Cl)c3)nc2)cc(OC)c1OC
IC50 (H9c2): 8.67 µM (active)

CCOC(=O)C1=C(C)N=C(C)/C(=C(/O)OCC)C1C(=O)OCC(=O)NC1CCCCC1 (centres undefined)
IC50 (H9c2): 7.69 µM (active)

C=CCC[C@H](Cc1ccc(F)cc1)C(=O)OC[C@@H](Cc1c[nH]c2ccccc12)NC(=O)[C@@H](CC=C)CC(=O)NCCO
IC50 (H9c2): > 79 µM (inactive)

Cc1c(Cl)cccc1NC(=O)CNC(=O)Cc1nnc(O)c2ccccc12
IC50 (H9c2): > 79 µM (inactive)

COc1ccc(-c2ccc3c(c2)S(=O)(=O)c2cccc(C(=O)N4CCN(c5ccccn5)CC4)c2C3=O)cc1OC
IC50 (H9c2): 15 µM (active)

O=c1c(O)c(-c2ccccc2)oc2cc(O)ccc12
IC50 (H9c2): > 79 µM (inactive)

O=c1c2cnn(-c3ccccc3)c2nnn1/N=C/c1cccnc1
AC50 (Cytochrome P450 2D6): 11.2 µM (inconclusive)
AC50 (Cytochrome P450 1A2): 3.16 µM (inconclusive)
AC50 (Cytochrome P450 2C19): inconclusive

COc1cc(OC)c(OC)cc1/C=N\CC1(c2ccccc2)CCCC1
AC50 (Cytochrome P450 2D6): 28.2 µM (inconclusive)
AC50 (Cytochrome P450 3A4): 25.1 µM (inconclusive)

COc1ccccc1CNCCCCCCNCCCCCCCCNCCCCCCNCc1ccccc1OC [METHOCTRAMINE]
AC50 (Cytochrome P450 2D6): 31.6 µM (inconclusive)
AC50 (Cytochrome P450 3A4): 10 µM (inconclusive)
